# Publication PMC6273807, “Identification of Selective ERRγ Inverse Agonists” (Molecules, 2016)
# What was measured:
# [1] = molecular target: T1, ERRγ (Homo sapiens, UniProt P62508); assay: TR-FRET (LanthaScreen) ERRγ binding assay; conditions: Table 1 screening; 2-fold serial dilution from 10 μM; read-out: ERRγ, IC50 (binding inhibition of ERRγ binding activity)
# T1 construct: purchased Life Technologies
# T1 sequence (P62508 233-457 limits assumed): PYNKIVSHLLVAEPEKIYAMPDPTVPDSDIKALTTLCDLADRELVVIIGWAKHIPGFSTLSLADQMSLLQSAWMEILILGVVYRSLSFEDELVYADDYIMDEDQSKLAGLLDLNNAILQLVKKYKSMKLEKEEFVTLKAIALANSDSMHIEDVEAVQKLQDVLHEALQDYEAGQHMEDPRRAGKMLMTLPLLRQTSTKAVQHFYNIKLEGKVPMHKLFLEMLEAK
# Procedure: Initials creening was conducted using a well established TR-FRET based ERRγ binding assay as described in the Experimental section at a concentration of 10 μM. Serial dilutions of the synthesized compounds were used to calculate IC50 values for the binding affinity with ERRγ.
# (§1) ERRγ binding assay was conducted with Lantascreen assay system (Life Technologies, Grand Island, NY, USA), which was based on TR-FRET, followed by manufacturer’s instruction. Briefly, compounds were serially diluted with 2-fold staring from 10 μM and 10 μL of each diluent was added in 384 well plate. Then, GST-conjugated ERRγ LBD (ligand-binding domain) was added to be 5 nM. Next, the mixture of fluorescien-conjugated coactivator PGC1a (final concentration to be 500 nM) and Tb-a-GST antibody (final concentration to be 5 nM) was added. The reaction mixture was incubated at rt in dark state for 1 h.
# [2] = molecular target: T2, ERRα (Homo sapiens, UniProt P11474); assay: TR-FRET (LanthaScreen) ERRα binding assay; conditions: maximum concentration tested 10 μM
# T2 construct: purchased Life Technologies
# T2 sequence (P11474 193-421 limits assumed): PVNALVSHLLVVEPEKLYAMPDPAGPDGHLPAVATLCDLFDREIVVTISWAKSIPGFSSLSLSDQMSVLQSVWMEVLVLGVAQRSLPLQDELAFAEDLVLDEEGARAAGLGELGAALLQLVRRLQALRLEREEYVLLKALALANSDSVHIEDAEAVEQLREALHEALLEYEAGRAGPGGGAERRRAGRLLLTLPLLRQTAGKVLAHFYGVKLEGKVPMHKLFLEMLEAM
# Procedure: as §1
# (§2) ERRs and ERα binding assay used same assay system as ERRγ’s, Lanthascreen assay system. Therefore, procedure was same as ERRγ binding assay except tested enzymes (ERRα, ERRβ, ERα). Used reference compounds were 4-OHT 1 for ERα and ERRβ binding assay, and XCT790 for ERRα binding assay.
# [3] = molecular target: T3, ERRβ (Homo sapiens, UniProt O95718); assay: TR-FRET (LanthaScreen) ERRβ binding assay; conditions: maximum concentration tested 10 μM
# T3 construct: purchased Life Technologies
# T3 sequence (O95718 208-432 limits assumed): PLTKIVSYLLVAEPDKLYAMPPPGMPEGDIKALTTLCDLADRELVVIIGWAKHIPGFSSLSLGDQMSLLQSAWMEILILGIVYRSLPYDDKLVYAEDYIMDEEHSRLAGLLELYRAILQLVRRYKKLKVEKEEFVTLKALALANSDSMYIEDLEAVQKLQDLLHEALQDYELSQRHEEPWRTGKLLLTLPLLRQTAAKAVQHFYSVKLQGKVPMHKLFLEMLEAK
# Procedure: as §1, §2
# [4] = molecular target: T4, ERα (Homo sapiens, UniProt P03372); assay: TR-FRET (LanthaScreen) ERα binding assay; conditions: maximum concentration tested 10 μM
# T4 construct: purchased Life Technologies
# T4 sequence (P03372 311-547 limits assumed): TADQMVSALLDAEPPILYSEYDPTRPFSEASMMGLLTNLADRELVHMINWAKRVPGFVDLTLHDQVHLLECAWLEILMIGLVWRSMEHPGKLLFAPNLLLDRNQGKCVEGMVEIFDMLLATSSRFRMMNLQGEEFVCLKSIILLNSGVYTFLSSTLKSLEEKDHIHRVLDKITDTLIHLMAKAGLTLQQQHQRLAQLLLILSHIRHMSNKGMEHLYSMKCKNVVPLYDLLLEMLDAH
# Procedure: as §1, §2
# [5] = molecular target: T5, ERRγ (Homo sapiens, UniProt P62508); assay: ERRγ functional assay: GAL4-ERRγ luciferase reporter gene in AD293 cells; format: cell-based
# T5 sequence (P62508 233-458 limits assumed): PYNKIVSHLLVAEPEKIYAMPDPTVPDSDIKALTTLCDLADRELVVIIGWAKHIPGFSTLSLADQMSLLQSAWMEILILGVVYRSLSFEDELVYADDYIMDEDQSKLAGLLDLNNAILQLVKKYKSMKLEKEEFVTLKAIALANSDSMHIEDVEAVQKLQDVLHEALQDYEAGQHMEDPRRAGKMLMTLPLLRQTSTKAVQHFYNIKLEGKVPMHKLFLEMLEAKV
# Procedure: Along with the binding assay campaign, functional activity was determined in order to validate the utility of the binding affinity in a cellular context as described in the Experimental.
# Figure 2 Cell based reporter-gene assay screening of 16 analogs ERRγ binding activity in cell was measured by luciferase activity using co-transfection system with GAL4-ERRγ and pFR-luciferase reporter gene.
# AD293 cells were cultured in Dulbecco’ modified Eagle medium (DMEM) High glucose supplemented with 0.5% FBS (Hyclone, Logan, UT, USA). After 24 h, culture media was changed with DMEM High glucose containing 10% FBS. DNA constructs, which includes pCMX-Gal4-ERRγ, pFR-luciferase reporter plasmid, pCMV-β-gal were transiently transfected into AD293 cells using TransIT-LT1 transfection reagent (Mirus, Madison, WI, USA) for 24 h. Then, transfected cells were treated with compounds for 24 h and harvested for detection of luciferase activity and β-gal activity. All cells were incubated at 37 °C under 5% CO2 in a humidified incubator [5].
# [6] = molecular target: T6, CYP1A2 (Homo sapiens, UniProt P05177); assay: CYP inhibition assay, cocktail, human liver microsomes (phenacetin O-deethylase); format: in vitro ADME; conditions: 10 μM, activity in presence of inhibitor as % of control
# T6 sequence (P05177 1-516): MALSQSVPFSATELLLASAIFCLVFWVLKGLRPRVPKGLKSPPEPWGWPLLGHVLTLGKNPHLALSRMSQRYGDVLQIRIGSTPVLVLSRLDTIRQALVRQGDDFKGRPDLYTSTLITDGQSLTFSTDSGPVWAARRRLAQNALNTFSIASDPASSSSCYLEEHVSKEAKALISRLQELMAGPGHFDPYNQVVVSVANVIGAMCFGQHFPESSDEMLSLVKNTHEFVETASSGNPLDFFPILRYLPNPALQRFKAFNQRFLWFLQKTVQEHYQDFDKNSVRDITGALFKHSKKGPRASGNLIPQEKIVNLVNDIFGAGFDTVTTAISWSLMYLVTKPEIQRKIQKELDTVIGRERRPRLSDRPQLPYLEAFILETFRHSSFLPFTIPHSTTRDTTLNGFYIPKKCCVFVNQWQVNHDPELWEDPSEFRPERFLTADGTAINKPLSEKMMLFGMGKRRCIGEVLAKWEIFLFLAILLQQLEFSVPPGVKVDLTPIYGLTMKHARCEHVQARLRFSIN
# [7] = molecular target: CYP2C9 (Homo sapiens, UniProt P11712); assay: CYP inhibition assay, cocktail, human liver microsomes (tolbutamide 4-hydroxylase); format: in vitro ADME
# [8] = molecular target: CYP2C19 (Homo sapiens, UniProt P33261); assay: CYP inhibition assay, cocktail, human liver microsomes (S-mephenytoin 4-hydroxylase); format: in vitro ADME; conditions: 10 μM, activity in presence of inhibitor as % of control
# [9] = molecular target: CYP2D6 (Homo sapiens, UniProt P10635); assay: CYP inhibition assay, cocktail, human liver microsomes (dextromethorphan O-demethylase); format: in vitro ADME; conditions: 10 μM, activity in presence of inhibitor as % of control
# [10] = tested on: CYP3A; assay: CYP inhibition assay, cocktail, human liver microsomes (midazolam 1'-hydroxylase); format: in vitro ADME; conditions: 10 μM, activity in presence of inhibitor as % of control
# [11] = molecular target: hERG channel (Homo sapiens, UniProt Q12809); assay: hERG channel binding assay (predictor hERG fluorescence polarization)
# Sequence of hERG channel (Q12809 whole entry): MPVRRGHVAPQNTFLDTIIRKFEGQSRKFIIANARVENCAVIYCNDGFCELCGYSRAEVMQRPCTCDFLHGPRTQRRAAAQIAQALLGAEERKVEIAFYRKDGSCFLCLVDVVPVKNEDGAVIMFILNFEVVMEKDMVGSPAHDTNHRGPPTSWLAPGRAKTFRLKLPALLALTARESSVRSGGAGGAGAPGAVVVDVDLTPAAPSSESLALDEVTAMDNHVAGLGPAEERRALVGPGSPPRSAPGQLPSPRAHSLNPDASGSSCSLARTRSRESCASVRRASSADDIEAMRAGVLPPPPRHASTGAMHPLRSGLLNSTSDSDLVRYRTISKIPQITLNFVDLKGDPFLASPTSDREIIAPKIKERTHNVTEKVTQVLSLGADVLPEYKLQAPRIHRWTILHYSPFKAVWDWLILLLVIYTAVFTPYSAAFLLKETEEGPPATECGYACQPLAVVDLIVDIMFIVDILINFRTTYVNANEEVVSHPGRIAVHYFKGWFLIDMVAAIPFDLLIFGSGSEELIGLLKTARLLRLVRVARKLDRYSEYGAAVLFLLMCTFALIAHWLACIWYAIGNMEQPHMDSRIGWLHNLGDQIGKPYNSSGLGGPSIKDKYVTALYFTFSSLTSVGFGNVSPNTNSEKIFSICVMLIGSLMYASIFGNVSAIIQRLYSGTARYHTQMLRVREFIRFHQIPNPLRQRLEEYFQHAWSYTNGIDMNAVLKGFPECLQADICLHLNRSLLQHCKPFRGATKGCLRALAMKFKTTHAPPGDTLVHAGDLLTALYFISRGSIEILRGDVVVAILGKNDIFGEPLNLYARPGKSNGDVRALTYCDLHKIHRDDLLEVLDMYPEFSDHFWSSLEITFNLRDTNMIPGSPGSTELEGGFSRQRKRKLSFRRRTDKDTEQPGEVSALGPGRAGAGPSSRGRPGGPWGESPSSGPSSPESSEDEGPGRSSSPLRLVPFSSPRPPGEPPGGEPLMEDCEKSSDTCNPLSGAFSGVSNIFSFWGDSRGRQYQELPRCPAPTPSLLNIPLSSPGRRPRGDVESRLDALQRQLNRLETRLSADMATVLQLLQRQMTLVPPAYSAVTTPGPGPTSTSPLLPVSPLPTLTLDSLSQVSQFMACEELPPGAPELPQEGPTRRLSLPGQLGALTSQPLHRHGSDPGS
# Procedure: hERG channel binding assay was performed using predictor hERG fluorescence polarization assay (Cat.No. PV5365, Invitrogen, Grand Island, NY, USA) according to the manufacturer’s instructions. […] Fluorescence intensity (Excitation at 530 nm, Emission at 590 nm) was measured using a multi-mode microplate reader Synergy Neo (Biotek, Winooski, VT, USA).
# Sequence of CYP2C9 (P11712 whole entry): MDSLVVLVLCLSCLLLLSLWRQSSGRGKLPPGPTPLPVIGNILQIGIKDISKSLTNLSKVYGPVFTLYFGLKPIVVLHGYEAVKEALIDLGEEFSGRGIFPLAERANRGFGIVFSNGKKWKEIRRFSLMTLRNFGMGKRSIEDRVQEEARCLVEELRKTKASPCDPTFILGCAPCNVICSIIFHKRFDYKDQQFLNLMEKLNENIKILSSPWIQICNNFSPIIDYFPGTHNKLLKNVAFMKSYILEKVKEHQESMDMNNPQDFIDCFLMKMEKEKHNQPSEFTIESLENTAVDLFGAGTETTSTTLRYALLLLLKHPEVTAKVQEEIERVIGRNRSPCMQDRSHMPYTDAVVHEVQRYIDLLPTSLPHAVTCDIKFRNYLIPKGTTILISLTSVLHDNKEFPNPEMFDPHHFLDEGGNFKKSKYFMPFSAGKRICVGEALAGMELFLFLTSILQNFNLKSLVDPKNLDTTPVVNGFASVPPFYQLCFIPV
# Sequence of CYP2C19 (P33261 whole entry): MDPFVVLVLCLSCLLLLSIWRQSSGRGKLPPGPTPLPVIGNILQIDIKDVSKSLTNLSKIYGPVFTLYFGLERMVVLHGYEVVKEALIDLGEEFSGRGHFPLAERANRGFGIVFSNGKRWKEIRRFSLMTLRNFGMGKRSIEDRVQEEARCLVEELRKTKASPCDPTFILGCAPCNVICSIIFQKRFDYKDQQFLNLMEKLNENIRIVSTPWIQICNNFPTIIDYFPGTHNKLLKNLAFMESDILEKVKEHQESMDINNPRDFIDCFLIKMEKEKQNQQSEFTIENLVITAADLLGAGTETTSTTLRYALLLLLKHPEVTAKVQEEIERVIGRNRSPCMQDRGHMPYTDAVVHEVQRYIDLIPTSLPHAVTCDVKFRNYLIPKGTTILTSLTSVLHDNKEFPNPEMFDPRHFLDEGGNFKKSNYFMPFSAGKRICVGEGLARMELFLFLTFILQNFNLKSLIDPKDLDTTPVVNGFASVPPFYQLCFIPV
# Sequence of CYP2D6 (P10635 whole entry): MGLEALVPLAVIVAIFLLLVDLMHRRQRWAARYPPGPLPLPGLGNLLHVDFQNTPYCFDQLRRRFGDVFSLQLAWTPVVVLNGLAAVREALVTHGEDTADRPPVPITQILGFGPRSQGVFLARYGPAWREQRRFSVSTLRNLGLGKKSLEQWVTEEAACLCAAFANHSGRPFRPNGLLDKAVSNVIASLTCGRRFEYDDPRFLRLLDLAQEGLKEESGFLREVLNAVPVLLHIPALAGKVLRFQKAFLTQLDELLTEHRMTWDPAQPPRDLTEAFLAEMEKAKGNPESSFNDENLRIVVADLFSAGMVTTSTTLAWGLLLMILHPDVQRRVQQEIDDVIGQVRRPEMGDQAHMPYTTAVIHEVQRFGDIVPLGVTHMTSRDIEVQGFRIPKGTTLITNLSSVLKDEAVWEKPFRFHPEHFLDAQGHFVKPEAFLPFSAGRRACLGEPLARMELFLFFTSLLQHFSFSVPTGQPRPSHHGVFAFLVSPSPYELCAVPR
compound,measurement,setting,value
"CN(C)CCOc1ccc(/C(=C(/CCCO)c2ccc3cnn(C)c3c2)c2ccc(O)cc2)cc1 [Compound 15g, (Z)-4-(1-(4-(2-(Dimethylamino)ethoxy)phenyl)-5-hydroxy-2-(1-methyl-1H-indazol-6-yl)pent-1-en-1-yl)phenol]",IC50,[1],0.44 µM
same,"Binding Assay, IC50, ERRα",[2],no observable affinity
same,IC50,[2],> 10 µM
same,"Binding Assay, IC50, ERRβ",[3],no observable affinity
same,IC50,[3],> 10 µM
same,IC50,[4],> 10 µM
same,ERRγ Functional Assay at 10 μM (% of Control),"[5]; 10 μM, AD293 cells, 24 h treatment, luciferase activity",5.4 % of Control
same,ERRγ functional activity in the cellular system (in words),"[5]; 10 μM, reporter-gene assay, compared with control ligand 4",comparable regression of the ERRγ transcriptional activity
same,inhibition at 10 µM,"[5]; AD293, 24 h, screening concentration of 10 μM, read-out: transcriptional repression",95%
same,"CYP Inhibition (% of Control), 1A2",[6],>100 % of Control
same,"CYP Inhibition (% of Control), 2C9","[7]; 10 μM, human liver microsomes, activity in presence of inhibitor as % of control",83 % of Control
same,inhibition of the CYP 2C9 subtype,[7]; at a concentration of 10 μM,17%
same,"CYP Inhibition (% of Control), 2C19",[8],95 % of Control
same,"CYP Inhibition (% of Control), 2D6",[9],99 % of Control
same,"CYP Inhibition (% of Control), 3A4",[10],88 % of Control
same,IC50,[11],> 30 µM
